Marks after values point to notes of the source that are not given here.
Columns and labels:
[1] = Foam test of DOSS solutions with added foam control agent (based on ASTM D 1173-53); assay type: physicochemical; details: for Foam height after 1 min / Foam height after 10 min / Initial foam height: 0.1 wt % foam control agent added to 0.1 wt % DOSS in water; for Initial foam height: ambient temperature
Text: Dioctyl sodium sulfosuccinate (DOSS) is a commonly used surfactant in waterborne compositions. DOSS is capable of forming stable foams when dissolved in water. The foam control characteristics of various foam control agents may be assessed by measuring the foam generated by a 0.1 wt % aqueous solution of DOSS and comparing this to the foam generated after the addition of foam control agent to a 0.1 wt % DOSS solution. The DOSS utilized in these measurements was an Aerosol OT 75% surfactant obtained from Cytec Industries. The foaming and foam stability of DOSS were measured using a procedure based upon ASTM D 1173-53 at ambient temperature, typically 23° C.
In these tests, an aqueous solution of DOSS or the filtrate from the DOSS/foam control agent mixture is added from an elevated foam pipette to a foam receiver containing the same solution. The foam height is measured at the completion of the addition (“Initial Foam Height”) and the time required for the foam to dissipate at the air-liquid interface (“Time to 0 Foam”) is recorded. This test provides a comparison between the foaming characteristics of various aqueous compositions. The results for the foam control agents prepared in Examples 1-28 are reported in Table 1 along with comparative data for a 0.1 wt % solution of DOSS with no added foam control agent (Example 29).

[2] = Dynamic surface tension of aqueous solutions, maximum bubble pressure method; assay type: physicochemical; details: for γ at 0.1 wt %, 0.1 b/s / γ at 0.1 wt %, 1 b/s / γ at 0.1 wt %, 6 b/s / γ at 0.1 wt %, 20 b/s: 0.1 wt % in distilled water
Text: Dynamic surface tension data were obtained for the soluble portion of these samples using the maximum bubble pressure method at bubble rates from 0.1 bubbles/sec (b/s) to 20 b/s.
The relative efficiency of surface tension reduction can be obtained by comparing surface tension reduction of solutions containing the same amount of different surfactants. Such data are given for 0.1 wt % solutions of the foam control agents at 0.1, 1, 6 and 20 bubbles/second (b/s). The limiting surface tensions at 0.1, 1, 6 and 20 b/s represent the lowest surface tensions in water which can be achieved at the given surface creation rates for a given surfactant regardless of the amount of surfactant used and is used to evaluate the effectiveness of a surfactant. In most cases the limiting surface tension was taken at 1.0 wt % since the foam control agent was insoluble at this concentration. In the case where the foam control agent was soluble at 1.0 wt %, the limiting surface tension was taken at 5.0 wt % (where the samples were insoluble). These values give information about the relative ability to a surfactant to reduce surface defects under near-equilibrium conditions (0.1 b/s) through very dynamic conditions (20 b/s).

[3] = saturated solution made using 1.0 wt % in water
[4] = saturated solution made using 5.0 wt % in water

SMILES | γ at 0.1 wt %, 0.1 b/s [2] [dyne/cm] | γ at 0.1 wt %, 1 b/s [2] [dyne/cm] | γ at 0.1 wt %, 6 b/s [2] [dyne/cm] | γ at 0.1 wt %, 20 b/s [2] [dyne/cm] | γ limiting, 0.1 b/s [2, 3] [dyne/cm] | γ limiting, 1 b/s [2, 3] [dyne/cm] | γ limiting, 6 b/s [2, 3] [dyne/cm] | γ limiting, 20 b/s [2, 3] [dyne/cm] | γ limiting, 0.1 b/s [2, 4] [dyne/cm] | γ limiting, 1 b/s [2, 4] [dyne/cm] | γ limiting, 6 b/s [2, 4] [dyne/cm] | γ limiting, 20 b/s [2, 4] | Foam height after 1 min [1] [cm] | Foam height after 10 min [1] [cm] | Initial foam height [1] [cm] | Effect on foaming of DOSS solution (in words) ([1]; added to the 0.1 wt % aqueous DOSS solution)
CCCCC(CC)COCC(O)CNCCN (mixture of isomers) [EDA/1 EHGE] | 28.6 | 37.3 | 54.7 | 63.3 | 27.4 | 28.3 | 30.6 | 32.5 | – | – | – | – | 0.2 | 0 | 1.5 | –
CCCCOCC(O)CNCCN (racemic) [EDA/1 BGE] | 46.1 | 49.4 | 53.4 | 59.9 | 36.7 | 37.2 | 38.1 | 39.8 | – | – | – | – | 2.0 | 1.4 | 3.5 | increase in foaming
CCCCOCC(O)CNCCCOCCOCCOCCCN (stereo not drawn) [DAPDEG/1 BGE] | 50.3 | 54.1 | 56.7 | 61.0 | 36.4 | 40.3 | 42.9 | 45.7 | – | – | – | – | 0.8 | 0.2 | 1.7 | –
CCCCOCC(O)CNCCCOCCOCCOCCCN(CC(O)COCCCC)CC(O)COCCCC (stereo not drawn) [DAPDEG/3 BGE] | 38.0 | 39.4 | 42.1 | 47.6 | 33.5 | 38.7 | 34.3 | 36.1 | – | – | – | – | 0.9 | 0.1 | 1.9 | –

Now from value to molecule, other results behind:

γ at 0.1 wt %, 0.1 b/s [2] [dyne/cm] | γ at 0.1 wt %, 1 b/s [2] [dyne/cm] | γ at 0.1 wt %, 6 b/s [2] [dyne/cm] | γ at 0.1 wt %, 20 b/s [2] [dyne/cm] | γ limiting, 0.1 b/s [2, 3] [dyne/cm] | γ limiting, 1 b/s [2, 3] [dyne/cm] | γ limiting, 6 b/s [2, 3] [dyne/cm] | γ limiting, 20 b/s [2, 3] [dyne/cm] | γ limiting, 0.1 b/s [2, 4] [dyne/cm] | γ limiting, 1 b/s [2, 4] [dyne/cm] | γ limiting, 6 b/s [2, 4] [dyne/cm] | γ limiting, 20 b/s [2, 4] | SMILES | Foam height after 1 min [1] [cm] | Foam height after 10 min [1] [cm] | Initial foam height [1] [cm] | Effect on foaming of DOSS solution (in words) ([1]; added to the 0.1 wt % aqueous DOSS solution)
44.7 | 47.0 | 50.3 | 55.2 | 43.5 | 44.5 | 46.2 | 48.7 | – | – | – | – | CCCCOCC(O)CNC1CCC(CC2CCC(N)CC2)CC1 (mixture of isomers) [PACM/1 BGE] | 0 | 0 | 2.3 | –
47.9 | 51.9 | 53.8 | 59.6 | – | – | – | – | 29.7 | 30.1 | 30.5 | 31.7^b dyne/cm | CC(C)COCC(O)CNCCN (racemic) [EDA/1 IBGE] | 1.0 | 0.3 | 1.5 | –
42.3 | 44.8 | 47.9 | 52.6 | 39.3 | 40.1 | 41.1 | 42.9 | – | – | – | – | CCCCOCC(O)CNCCCCCCN (racemic) [HDA/1 BGE] | 0.4 | 0 | 1.4 | –

— US6746623B2, “Alkyl glycidyl ether-capped diamine foam controlling agent” (Air Products and Chemicals, Inc., priority 2002, dated 2004)
